Key:
[1] = system: lung eosinophil infiltration; assay: Inhibition of lung eosinophil infiltration (OVA-sensitized, BALF); type: in vivo, Hartley guinea-pigs; conditions: Cavia porcellus, guinea-pigs, oral, 1 hour before OVA inhalation, BALF eosinophils at 24 hours, read-out: Inhibition of Lung Eosinophil Infiltration ED50: mg/kg orally
Description: Hartley guinea-pigs were sensitized by inhaling twice 1% ovalbumin (OVA) in a physiological saline for 10 minutes with a nebulizer (Atom Medical Corporation, Japan) at an interval of 1 week. The animals were orally given a suspension of test compounds at a dose of 0.03 to 3 mg/2 mL/kg one week after the final sensitization. One hour later, the animals were exposed to antigens by inhalation of 2% OVA in a physiological saline for 5 minutes with a nebulizer. Thirty minutes before the antigen challenge, the animals were intraperitoneally pretreated with pyrilamine at a dose of 10 mg/kg to avoid fatality due to anaphylactic shock. Bronchoalveolar lavage fluid (BALF) samples were collected 24 hours after the exposure by inhalation of antigens, and eosinophils were counted.

[2] = system: lung neutrophil infiltration; assay: Inhibition of lung neutrophil infiltration (LPS inhalation, BALF); type: in vivo, Hartley guinea-pigs; conditions: Cavia porcellus, guinea-pigs, oral, 1 hour before LPS inhalation, BALF neutrophils at 24 hours, read-out: Inhibition of Lung Neutrophil Infiltration ED50: mg/kg orally
Description: Hartley guinea-pigs were orally received a suspension of test compounds at a dose of 0.03 to 3 mg/2 mL/kg. One hour later, the animals were received 0.1 mg/mL lipopolylsaccharide (LPS) in a physiological saline via an inhalational route with a nebulizer for 30 minutes. Twenty-four hours after the LPS inhalation, BALF samples were collected, and neutrophils were counted.

[3] = system: T1, PDE IV isozymes separated from U937 culture cells; assay: PDE IV inhibition ([3H]-cAMP hydrolysis); type: biochemical; conditions: cAMP 1 μM substrate, 30° C., 20 minutes
T1 construct: PDE IV isozymes as used herein were separated from U937 culture cells by using an anion exchange chromatography
Description: PDE IV isozymes as used herein were separated from U937 culture cells by using an anion exchange chromatography. Type IV PDE isozyme was admixed with ethylene glycol (EG) to adjust the final EG concentration to 30%, then stored at −20° C. and diluted when used. The enzymatic activity for PDE IV was measured using cAMP as a substrate.
Each test compound was dissolved in DMSO to adjust the final concentration to 1% (2.5 μl/tube).
Incubation Buffer Solution (pH7.5):
• Tris-HCl (50 mM), magnesium chloride (6 mM), dithiothreitol (2.5 mM), 5-nucleotidase (4 μg/ml), bovine serum albumin (0.23 mg/ml), and cAMP (1 μM).
A mixture of the aforementioned test compound solution and the buffer solution was incubated at 30° C. for 20 minutes. The reaction was quenched by admixing with 1 ml of anion exchange resin slurry (AG1-X8, 200-400 meshes, chloride form; Bio-Rad) to absorb unreacted substrates. After the reaction stopped, the mixture was centrifuged at 800×g for 10 minutes, and the resulting supernatant was collected with vials in 250 μl aliquots. To each vial was added 5 ml of ACS-II (scintillator, Amersham). The radioactivity was measured with a liquid scintillator counter for [^3H]-adenosine and set as the PDE IV activity.

[4] = system: rats; assay: Toxicology study (2-weeks administration to rats); type: in vivo; conditions: oral, 1, 5, or 25 mg/5 ml/kg
Description: Each compound of the present invention (Example Nos. 9 and 33) was administered orally to rats (6 animals per group) as a test compound. […] The test compound was suspended in 0.5% CMC-Na solution and given orally to the animal at a dose of 1, 5, or 25 mg/5 ml/kg in a forced manner.

[5] = target: T2, CYP2D6 (Homo sapiens, UniProt P10635); assay: Inhibition of drug-metabolizing enzyme CYP2D6 (CYP2D6/AMMC kit); type: in vitro ADME; conditions: CYP2D6-expressing microsomes, AMMC substrate, 37° C., 30 minutes; read-out: Inhibition of Drug-Metabolizing Enzymes (IC50; μM) CYP2D6
T2 construct: purchased BD Biosciences, NJ, USA; host or cells: CYP2D6-expressing system microsomes
T2 sequence (P10635 whole entry): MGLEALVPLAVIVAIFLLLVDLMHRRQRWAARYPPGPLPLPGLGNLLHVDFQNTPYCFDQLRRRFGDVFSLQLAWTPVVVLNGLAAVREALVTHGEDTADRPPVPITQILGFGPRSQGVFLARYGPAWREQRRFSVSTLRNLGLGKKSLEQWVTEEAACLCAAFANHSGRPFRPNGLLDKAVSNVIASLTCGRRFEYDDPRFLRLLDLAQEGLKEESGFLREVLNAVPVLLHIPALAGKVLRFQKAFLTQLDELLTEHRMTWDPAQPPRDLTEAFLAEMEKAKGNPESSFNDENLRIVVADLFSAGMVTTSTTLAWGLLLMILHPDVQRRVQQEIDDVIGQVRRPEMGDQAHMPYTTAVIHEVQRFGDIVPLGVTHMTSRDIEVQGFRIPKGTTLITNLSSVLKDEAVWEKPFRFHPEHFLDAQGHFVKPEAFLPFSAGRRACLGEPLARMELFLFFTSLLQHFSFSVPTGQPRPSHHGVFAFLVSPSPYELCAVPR
Description: The inhibitory effect on CYP2D6 and CYP3A4 was determined using High Throughput Inhibitor Screening Kits: CYP2D6/AMMC and CYP3A4/BFC (both from BD Biosciences, NJ, USA). Briefly, each of NADPH regenerating systems, cofactors, and test compounds was dispensed into 96-well plates, followed by addition of each of fluorescent substrates, AMMC (CYP2D6) or BFC (CYP3A4). To each well were added CYP2D6-expressing system microsomes or CYP3A4-expressing system microsomes, and the plates were incubated at 37° C. for 30 minutes, and then read for fluorescent signals (CYP2D6: ex=390 nm, em=460 nm; CYP3A4: ex=409 nm, em=538 nm wherein excitation wavelength: ex and emission wavelength: em). Thus, each inhibitory efficacy on enzymes CYP2D6 and CYP3A4 was determined. Roflumilast was used for the reference compound in this assay.

`O=c1c2c(Cc3ccccc3)n[nH]c2c2cccnc2n1-c1ccccc1` [Example No. 9, 3-benzyl-5-phenyl-1H-pyrazolo[4,3-c][1,8]naphthyridin-4 (5H)-one] gave an ED50 [1] of under 0.03 mg/kg, an ED50 [2] of 0.12 mg/kg and an IC50 [3] of 0.084 µM. The “Abnormality in other parameters” value [4] was “no clear abnormality was observed”, the Body weight gain [4] was “No significant reduction of body weight gains was observed” and the Mortality [4] was “None of the animals were died”. For the same molecule, the IC50 [5] was over 10 µM.

`O=c1c2c(Cc3ccc(F)cc3)n[nH]c2c2cccnc2n1-c1ccccc1` [Example No. 33, 3-(4-fluorobenzyl)-5-phenyl-1H-pyrazolo[4,3-c][1,8]naphthyridin-4 (5H)-one] showed an ED50 [1] of 0.03 mg/kg, an ED50 [2] of 0.09 mg/kg and an IC50 [3] of 0.068 µM. The “Abnormality in other parameters” value [4] was “no clear abnormality was observed”, the Body weight gain [4] was “No significant reduction of body weight gains was observed” and the Mortality [4] was “None of the animals were died”. The IC50 [5] was over 10 µM.
